Results from patent US20030100034A1, “9136, a human aldehyde dehydrogenase family member and uses therefor” (Millennium Pharmaceuticals, Inc., priority 2001, published 2003).

Tested on: 9136 in NCI-H125 cells
Assay: 9136 expression after 4HT induction of p53ER in NCI-H125 cells
Assay type: cell-based, human
Procedure: Total RNA was prepared from various human tissues by a single step extraction method using RNA STAT-60 according to the manufacturer's instructions (TelTest, Inc). Each RNA preparation was treated with DNase I (Ambion) at 37° C. for 1 hour. DNAse I treatment was determined to be complete if the sample required at least 38 PCR amplification cycles to reach a threshold level of fluorescence using β-2 microglobulin as an internal amplicon reference. The integrity of the RNA samples following DNase I treatment was confirmed by agarose gel electrophoresis and ethidium bromide staining. After phenol extraction cDNA was prepared from the sample using the SUPERSCRIPT™ Choice System following the manufacturer's instructions (GibcoBRL). A negative control of RNA without reverse transcriptase was mock reverse transcribed for each RNA sample. Human 9136 expression was measured by TaqMan® & quantitative PCR (Perkin Elmer Applied Biosystems) in cDNA prepared from a variety of normal and diseased (e.g., cancerous) human tissues or cell lines. Probes were designed by PrimerExpress software (PE Biosystems) based on the sequence of the human 9136 gene. Each human 9136 gene probe was labeled using FAM (6-carboxyfluorescein), and the β2-microglobulin reference probe was labeled with a different fluorescent dye, VIC. The differential labeling of the target gene and internal reference gene thus enabled measurement in same well. Forward and reverse primers and the probes for both β2-microglobulin and target gene were added to the TaqMan® Universal PCR Master Mix (PE Applied Biosystems). Although the final concentration of primer and probe could vary, each was internally consistent within a given experiment. A typical experiment contained 200 nM of forward and reverse primers plus 100 nM probe for β-2 microglobulin and 600 nM forward and reverse primers plus 200 nM probe for the target gene. TaqMan matrix experiments were carried out on an ABI PRISM 7700 Sequence Detection System (PE Applied Biosystems). The thermal cycler conditions were as follows: hold for 2 min at 50° C. and 10 min at 95° C., followed by two-step PCR for 40 cycles of 95° C. for 15 sec followed by 60° C. for 1 min.
The following method was used to quantitatively calculate human 9136 gene expression in the various tissues relative to β-2 microglobulin expression in the same tissue. The threshold cycle (Ct) value is defined as the cycle at which a statistically significant increase in fluorescence is detected. A lower Ct value is indicative of a higher mRNA concentration. The Ct value of the human 9136 gene is normalized by subtracting the Ct value of the β-2 microglobulin gene to obtain a ΔCt value using the following formula: ΔCt=[…]−Ctβ-2 microglobulin. Expression is then calibrated against a cDNA sample showing a comparatively low level of expression of the human 9136 gene. The ΔCt value for the calibrator sample is then subtracted from ΔCt for each tissue sample according to the following formula: ΔΔCt=ΔCt-sample−ΔCt-calibrator. Relative expression is then calculated using the arithmetic formula given by 2^−ΔΔCt. Relative expression levels of the target human 9136 gene in each of the tissues tested is then graphically represented as discussed in more detail below.
In addition, a study of the 9136 gene expression levels, with or without introduction of p53 expression, was carried out in several carcinoma cell lines. The p53 tumor suppressor gene has been the subject of intense study for a number of years. […] One of those identified genes is 9136, which, as mentioned earlier, is the human ALDH6 gene.

CC/C(=C(\c1ccc(O)cc1)c1ccc(OCCN(C)C)cc1)c1ccccc1 [4HT] was tested, and the “9136 Expression” value (0 hr post-4HT induction) was 5.82, the “9136 Expression” value (5 min post-4HT induction) was 6.29 and the “9136 Expression” value (20 min post-4HT induction) was 5.64. The “9136 Expression” value (1 hr post-4HT induction) was 5.60, the “9136 Expression” value (3 hr post-4HT induction) was 5.83 and the “9136 Expression” value (9 hr post-4HT induction) was 5.10. The “9136 Expression” value (24 hr post-4HT induction) was 3.1 and the “9136 Expression” value (48 hr post-4HT induction) was 3.03.
